ChEMBL document CHEMBL4342527, “Discovery of Novel Fungal Lanosterol 14α-Demethylase (CYP51)/Histone Deacetylase Dual Inhibitors to Treat Azole-Resistant Candidiasis” (J Med Chem, 2020)
Converted amounts (≈) assume the structure as drawn. The source made the active and inactive calls. The calls are words filed in the database; no cut-off is given here.

Experiments:
[1] = biological target: T1, Lanosterol 14-alpha demethylase (Candida albicans (strain SC5314 / ATCC MYA-2876) (Yeast), UniProt P10613); assay: Inhibition of CYP51 in azole-resistant Candida albicans 0304103 assessed as reduction in ERG11 gene expression at 32 ug/ml after 16 hrs by SYBR Green-1 dye based RT-PCR analysis; parameters: species or system 304103
T1 sequence (P10613 whole entry): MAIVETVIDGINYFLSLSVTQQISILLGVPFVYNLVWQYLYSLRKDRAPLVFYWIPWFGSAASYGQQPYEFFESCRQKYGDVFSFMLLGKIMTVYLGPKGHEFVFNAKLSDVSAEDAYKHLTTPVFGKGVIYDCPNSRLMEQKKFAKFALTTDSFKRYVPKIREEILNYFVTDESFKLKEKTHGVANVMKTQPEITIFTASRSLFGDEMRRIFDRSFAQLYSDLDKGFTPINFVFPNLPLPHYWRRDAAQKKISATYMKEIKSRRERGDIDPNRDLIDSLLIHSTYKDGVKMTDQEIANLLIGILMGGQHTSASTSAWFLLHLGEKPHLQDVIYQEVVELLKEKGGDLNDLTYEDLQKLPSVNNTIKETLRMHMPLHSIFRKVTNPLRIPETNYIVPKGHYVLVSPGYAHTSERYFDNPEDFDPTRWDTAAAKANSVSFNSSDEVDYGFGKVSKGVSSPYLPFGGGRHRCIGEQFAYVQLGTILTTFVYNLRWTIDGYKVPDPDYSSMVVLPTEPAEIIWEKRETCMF

Candida albicans [2] = assay: Antifungal activity against azole-resistant Candida albicans 0304103 infected in ICR mouse assessed as mean survival time at 20 mg/kg, ip qd for 5 days (reference value: 10 days); type: functional
Candida tropicalis = assay: Antifungal activity against azole-resistant Candida tropicalis 5008 after 48 hrs by spectrophotometry-based serial microdilution method; type: functional; conditions: Candida tropicalis, 5008, 48 h
Cryptococcus neoformans = assay: Antifungal activity against azole-sensitive Cryptococcus neoformans H99 after 72 hrs by spectrophotometry-based serial microdilution method; type: functional, var grubii H99; conditions: Cryptococcus neoformans, var grubii H99 , 72 h; read-out: MIC80
Candida albicans [3] = assay: Inhibition of yeast to hypha transition in azole resistant Candida albicans 0304103 assessed as down regulation of CPH1 gene expression at 32 ug /ml after 16 hrs by SYBR Green I dye based RT-PCR analysis; type: functional, organism-based
[4] = Selectivity index, ratio of IC50 for HUVEC to MIC80 for azole-resistant Candida albicans 7781; type: toxicity; conditions: human
Candida albicans [5] = assay: Inhibition of HDAC in azole-resistant Candida albicans 0304103 assessed as reduction in CDR1 gene expression at 32 ug/ml after 16 hrs by SYBR Green-1 dye based RT-PCR analysis; conditions: 304103
[6] = biological target: T1, Lanosterol 14-alpha demethylase; assay: Inhibition of CYP51 in azole-resistant Candida albicans 0304103 assessed as eburicol level at 0.5 ug/ml after 24 hrs by GC-MS analysis relative to control; parameters: scale not given: the % may be the effect or the level left
Candida albicans [7] = assay: Inhibition of yeast to hypha transition in azole resistant Candida albicans 0304103 assessed as down regulation of TEC1 gene expression at 32 ug /ml after 16 hrs by SYBR Green I dye based RT-PCR analysis; type: functional, organism-based
[8] = Selectivity index, ratio of IC50 for human A549 cells to MIC80 for azole-resistant Candida albicans 4108; type: toxicity
Candida albicans [9] = assay: Antifungal activity against azole-resistant Candida albicans 0304103 infected in ICR mouse assessed as reduction in fungal burden in kidney at 20 mg/kg, po qd for 5 days measured 24 hrs post-last dose; type: functional, organism-based
Candida albicans [10] = assay: Inhibition of yeast to hypha transition in azole resistant Candida albicans 0304103 assessed as down regulation of EFG1 gene expression at 32 ug /ml after 16 hrs by SYBR Green I dye based RT-PCR analysis; type: functional, organism-based
Candida albicans [11] = assay: Antifungal activity against Candida albicans 0304103 assessed as inhibition of yeast to hypha morphological transition at 8 ug/ml after 4 hrs by differential interference contrast microscopic analysis relative to control; type: functional; conditions: Candida albicans, 0304103, 4 h
[12] = biological target: T1, Lanosterol 14-alpha demethylase; assay: Inhibition of CYP51 in azole-resistant Candida albicans 0304103 assessed as lanosterol level at 0.5 ug/ml after 24 hrs by GC-MS analysis (reference value: 4.15%); parameters: scale not given: the % may be the effect or the level left
HUVEC = assay: Cytotoxicity against HUVEC assessed as reduction in cell viability after 48 hrs by CCK-8 assay based spectrophotometric analysis; conditions: Homo sapiens
[13] = biological target: T1, Lanosterol 14-alpha demethylase; assay: Inhibition of CYP51 in azole-resistant Candida albicans 0304103 assessed as obtusifoliol level at 0.5 ug/ml after 24 hrs by GC-MS analysis relative to control; parameters: scale not given: the % may be the effect or the level left
Candida albicans [14] = assay: Inhibition of HDAC in azole-resistant Candida albicans 0304103 assessed as reduction in MDR1 gene expression at 32 ug/ml after 16 hrs by SYBR Green-1 dye based RT-PCR analysis; conditions: 304103
Candida albicans [15] = assay: Antifungal activity against Candida albicans 0304103 assessed as inhibition of yeast to hypha morphological transition at 1 ug/ml after 4 hrs by differential interference contrast microscopic analysis relative to control; type: functional; conditions: Candida albicans, 0304103, 4 h
Candida albicans [16] = assay: Fungistatic activity agaisnt Candida albicans 0304103 at 16 ug/ml preincubated for up to 24 hrs followed by replating on SDA plate and measured after 48 hrs by time kill assay; type: functional, organism-based

CN(Cc1ccc(-n2cnn(CCCCc3ccc(C(=O)NO)cc3)c2=O)cc1)CC(O)(Cn1cncn1)c1ccc(F)cc1F (racemic)
inhibition (INH) [1]: Active | MST (Candida albicans [2]): 20 days | MIC80 (Candida tropicalis): 8 µg/mL (≈ 12.6 µM) | MIC80 (Cryptococcus neoformans): 2 µg/mL (≈ 3.16 µM) | inhibition (Candida albicans [3]): Active | selectivity ratio [4]: 2 to 16 | inhibition (Candida albicans [5]): Active | Activity [6]: 13.22% | inhibition (Candida albicans [7]): Active | selectivity ratio [8]: 2 to 16 | Activity (Candida albicans [9]): Active | inhibition (Candida albicans [10]): Active | inhibition at 8 µg/mL (Candida albicans [11]): 100% | Activity [12]: 25.29% | IC50 (HUVEC): 6.7 to 25.4 µM

CN(Cc1ccc(OCCCOc2ccc(CC(=O)NO)cc2)cc1)CC(O)(Cn1cncn1)c1ccc(F)cc1F (racemic)
inhibition (INH) [1]: Active | MST (Candida albicans [2]): 16.5 days | MIC80 (Candida tropicalis): 0.25 µg/mL (≈ 0.43 µM) | MIC80 (Cryptococcus neoformans): 0.5 µg/mL (≈ 0.86 µM) | inhibition (Candida albicans [3]): Active | Activity [13]: 7.59% | inhibition (Candida albicans [14]): Active | selectivity ratio [4]: 2 to 16 | inhibition (Candida albicans [5]): Active | inhibition at 1 µg/mL (Candida albicans [15]): 100% | Activity [6]: 65.4% | inhibition (Candida albicans [7]): Active | selectivity ratio [8]: 2 to 16 | Activity (Candida albicans [9]): Active | Activity (Candida albicans [16]): Active | inhibition (Candida albicans [10]): Active | Activity [12]: 8.57% | IC50 (HUVEC): 6.7 to 25.4 µM
